The source of these data is DBAASP.

Holding throughout (assay): ≥ marks a high value that may be exact or a test limit, other limits are often not marked, values filed in µg/mL are converted to µM
The test system of assay [1] is Micrococcus luteus BCRC 11034.
Assay [2] deals with Pseudomonas aeruginosa.
The subject of assay [3] is Staphylococcus aureus BCRC 10780.
In assay [4] the test system is Staphylococcus aureus.
The test system of assay [5] is Staphylococcus sp. BCRC 10451.
Assay [6] has as its system Streptococcus agalactiae.
In assay [7] the test system is Streptococcus pneumoniae BCRC 10794.
Assay [8] relates to Vibrio alginolyticus.
Assay [9] has as its system Vibrio harveyi BCRC 13812.
For assay [10], the system named is Vibrio vulnificus 204.
Assay [11] concerns Aeromonas hydrophila BCRC 13018.
Assay [12] has as its system Enterococcus faecalis BCRC 10066.
Assay [13] relates to Pseudomonas aeruginosa ATCC 19660.
Assay [14] concerns Streptococcus agalactiae 819.
In assay [15] the test system is Streptococcus agalactiae BCRC 10787.
Assay [16] concerns Acinetobacter baumannii ATCC 19606.
Assay [17] has as its system Acinetobacter junii RT-4.
The subject of assay [18] is Bacillus megaterium Bm11.
Assay [19] concerns Candida albicans ATCC 10231.
Assay [20] deals with Enterococcus faecalis ATCC 29212.
Assay [21] relates to Escherichia coli ATCC 25922.
Assay [22] relates to Escherichia coli D21.
For assay [23], the system named is Pseudomonas aeruginosa ATCC 15692.
Assay [24] has as its system Pseudomonas aeruginosa ATCC 27853.
Assay [25] concerns Pseudomonas syringae pv. tabaci 1918NCPPB.
In assay [26] the test system is Saccharomyces cerevisiae.
Assay [27] deals with Schizosaccharomyces pombe.
For assay [28], the system named is Staphylococcus aureus ATCC 25923.
Assay [29] has as its system Staphylococcus aureus Cowan 1.
Assay [30] deals with Staphylococcus capitis 1.
Assay [31] has as its system Staphylococcus epidermidis ATCC 12228.
Assay [32] relates to Streptococcus pyogenes ATCC 21547.
The subject of assay [33] is Yersinia pseudotuberculosis YPIII.
The test system of assay [34] is Bacillus anthracis.
Assay [35] has as its system Bacillus cereus.
For assay [36], the system named is Escherichia coli.
For assay [37], the system named is Bacillus subtilis 168.
The subject of assay [38] is Bacillus subtilis KCTC 3068.
Assay [39] deals with Candida albicans CA14.
Assay [40] concerns Escherichia coli K-12.
The subject of assay [41] is Escherichia coli KCTC 1682.
Assay [42] relates to Malassezia sympodialis ATCC 42132.
In assay [43] the test system is Pseudomonas aeruginosa KCTC 1637.
Assay [44] concerns Saccharomyces cerevisiae BY4741.
Assay [45] concerns Salmonella typhimurium KCTC 1926.
The test system of assay [46] is Staphylococcus aureus KCTC 1621.
The test system of assay [47] is Staphylococcus aureus RN4220.
Assay [48] has as its system Staphylococcus epidermidis KCTC 1917.

Converted amounts (≈) assume the structure as drawn.

`CC[C@H](C)[C@H](NC(=O)[C@H](CCSC)NC(=O)[C@H](CCCCN)NC(=O)CNC(=O)[C@H](C)NC(=O)[C@H](Cc1cnc[nH]1)NC(=O)[C@H](Cc1ccccc1)NC(=O)[C@H](CC(C)C)NC(=O)CNC(=O)[C@H](CCCCN)NC(=O)[C@@H](NC(=O)[C@@H](NC(=O)[C@H](Cc1cnc[nH]1)NC(=O)[C@H](Cc1ccccc1)NC(=O)[C@@H](NC(=O)[C@H](Cc1ccccc1)NC(=O)CNC(C)=O)[C@@H](C)CC)[C@@H](C)CC)[C@@H](C)CC)C(=O)N[C@@H](Cc1cnc[nH]1)C(=O)NCC(=O)N[C@@H](CC(C)C)C(=O)N[C@H](C(N)=O)C(C)C` [GFIFHIIKGLFHAGKMIHGLV]: the MIC in assay [1] was 2.68 µM (≈ 6.36 µg/mL); in [2] it was 5.35 µM (≈ 12.7 µg/mL); in assay [3], 21.4 µM (≈ 50.9 µg/mL); in [4], 5.35 µM (≈ 12.7 µg/mL); in [5], 2.68 µM (≈ 6.36 µg/mL); in assay [6], ≥ 42.8 µM. The minimum inhibitory concentration (MIC) is 21.4 µM (≈ 50.9 µg/mL) in assay [7], 2.68 µM (≈ 6.36 µg/mL) in assay [8], 2.68 µM (≈ 6.36 µg/mL) in assay [9] and 21.4 µM (≈ 50.9 µg/mL) in assay [10].
Turning to `CC[C@H](C)[C@H](NC(=O)[C@H](C)NC(=O)[C@H](CCCN=C(N)N)NC(=O)[C@H](Cc1cnc[nH]1)NC(=O)[C@@H](NC(=O)[C@H](C)NC(=O)[C@H](CCCN=C(N)N)NC(=O)[C@@H](NC(=O)CNC(=O)[C@H](Cc1cnc[nH]1)NC(=O)[C@H](CO)NC(=O)[C@@H](NC(=O)[C@H](Cc1c[nH]c2ccccc12)NC(=O)CNC(=O)[C@@H](NC(=O)[C@@H](NC(=O)[C@H](Cc1cnc[nH]1)NC(=O)[C@H](Cc1cnc[nH]1)NC(=O)[C@@H](NC(=O)[C@@H](N)Cc1ccccc1)[C@@H](C)CC)[C@@H](C)CC)[C@@H](C)CC)[C@@H](C)CC)C(C)C)[C@@H](C)CC)C(=O)N[C@@H](Cc1cnc[nH]1)C(=O)NCC(N)=O` [FIHHIIGWISHGVRAIHRAIHG], the MIC in assay [11] was determined as 7.82 µM (≈ 19.8 µg/mL); in assay [12], 3.91 µM (≈ 9.89 µg/mL); in assay [13], 7.82 µM (≈ 19.8 µg/mL); in [14], 3.91 µM (≈ 9.89 µg/mL); in [15] it was 0.123 µM (≈ 0.31 µg/mL); in [8] it was 0.49 µM (≈ 1.24 µg/mL). For the same molecule, the MIC in [10] stood at 0.245 µM (≈ 0.62 µg/mL).
Turning to `CC[C@H](C)[C@H](NC(=O)[C@H](CCCN=C(N)N)NC(=O)CNC(=O)[C@H](CC(C)C)NC(=O)[C@H](Cc1ccccc1)NC(=O)[C@H](CCCCN)NC(=O)[C@H](CO)NC(=O)[C@H](Cc1ccccc1)NC(=O)[C@H](Cc1c[nH]c2ccccc12)NC(=O)[C@@H]1CCCN1C(=O)[C@@H](NC(=O)[C@@H](N)Cc1ccccc1)C(C)C)C(=O)N[C@@H](CC(C)C)C(N)=O` [FVPWFSKFLGRIL], the MIC in assay [16] is 6 µM (≈ 9.65 µg/mL); in assay [17], 6 µM (≈ 9.65 µg/mL); in assay [18], 1.5 µM (≈ 2.41 µg/mL); in assay [19], 6 µM (≈ 9.65 µg/mL); in assay [20] it was 6 µM (≈ 9.65 µg/mL); in [21] it was 24 µM (≈ 38.6 µg/mL). The MIC in assay [22] was 12 µM (≈ 19.3 µg/mL); in assay [23], 24 µM (≈ 38.6 µg/mL); in assay [24], > 48 µM; in assay [25], 6 µM (≈ 9.65 µg/mL); in assay [26] it was 6 µM (≈ 9.65 µg/mL); in assay [27], 3 µM (≈ 4.83 µg/mL). In addition, the MIC in assay [28] turned out to be 3 µM (≈ 4.83 µg/mL); in [29], 1.5 µM (≈ 2.41 µg/mL); in assay [30] it was 1.5 µM (≈ 2.41 µg/mL); in assay [31], 1.5 µM (≈ 2.41 µg/mL); in assay [32], 6 µM (≈ 9.65 µg/mL); in [33] it was 3 µM (≈ 4.83 µg/mL).
On to `CC(C)C[C@H](NC(=O)[C@H](Cc1ccccc1)NC(=O)[C@@H]1CCCN1C(=O)[C@H](Cc1ccccc1)NC(=O)[C@@H](NC(=O)[C@H](Cc1ccccc1)NC(=O)[C@H](CC(C)C)NC(=O)[C@@H](NC(=O)[C@H](CCCCN)NC(=O)[C@@H](NC(=O)[C@H](CCCCN)NC(=O)[C@H](CCCCN)NC(=O)[C@H](C)NC(=O)CNC(=O)[C@H](C)NC(=O)[C@@H](NC(=O)[C@H](CO)NC(=O)[C@@H](NC(=O)CN)C(C)C)C(C)C)C(C)C)C(C)C)C(C)C)C(=O)N[C@@H](Cc1ccccc1)C(=O)O` [GVSVAGAKKVKVLFVFPFLF], for which the MIC was ≥ 119 µM in assay [34], ≥ 119 µM in assay [35], > 119 µM in [36] and > 119 µM in [4].
As to `CC[C@H](C)[C@H](NC(=O)[C@H](CCCN=C(N)N)NC(=O)[C@H](CCCN=C(N)N)NC(=O)[C@H](CCCN=C(N)N)NC(=O)[C@H](CC(C)C)NC(=O)[C@@H](NC(=O)[C@@H](NC(=O)[C@H](CC(C)C)NC(=O)[C@@H](N)CC(C)C)[C@@H](C)CC)[C@@H](C)CC)C(=O)N[C@@H](CCCN=C(N)N)C(=O)N[C@@H](CCCCN)C(=O)N[C@@H](CCC(N)=O)C(=O)N[C@@H](C)C(=O)N[C@@H](Cc1cnc[nH]1)C(=O)N[C@@H](C)C(=O)N[C@@H](Cc1cnc[nH]1)C(=O)N[C@@H](CO)C(=O)N[C@@H](CCCCN)C(N)=O` [LLIILRRRIRKQAHAHSK], the minimum inhibitory concentration (MIC) in [37] stood at 10 µM (≈ 22.1 µg/mL); in assay [38], 4 µM (≈ 8.83 µg/mL); in assay [39], 10 µM (≈ 22.1 µg/mL); in [40] it was 10 µM (≈ 22.1 µg/mL); in assay [41], 16 µM (≈ 35.3 µg/mL); in [42] it was 4.98 µM (≈ 11 µg/mL). Further, the minimum inhibitory concentration (MIC) in assay [43] was 8 µM (≈ 17.7 µg/mL); in assay [44], 10 µM (≈ 22.1 µg/mL); in [45] it was 4 µM (≈ 8.83 µg/mL); in assay [46], 4 µM (≈ 8.83 µg/mL); in [47] it was 10 µM (≈ 22.1 µg/mL); in assay [48] it was 8 µM (≈ 17.7 µg/mL).

Usually MIC stands for the smallest concentration in the dilution series that meets the test's criterion for growth inhibition.
